Source: PubChem BioAssay (NCI)
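Where inhibition never reached the appropriate level, the endpoint shown equals the highest concentration tested. Otherwise, values were interpolated linearly from a five-concentration, 48-hour dose response in 96-well plates. At the GI50, growth is halved. At the TGI there is no net growth.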

Tests used:
Assay in all cases: NCI-60 cell line screen, 48 h
786-0 renal = tested on: 786-0 renal
A498 renal = tested on: A498 renal
A549 NSCLC = tested on: A549 NSCLC
ACHN renal = tested on: ACHN renal
BT-549 breast = tested on: BT-549 breast
CAKI-1 renal = tested on: CAKI-1 renal
CCRF-CEM leukemia = tested on: CCRF-CEM leukemia
COLO 205 colon = tested on: COLO 205 colon
DU-145 prostate = tested on: DU-145 prostate
EKVX NSCLC = tested on: EKVX NSCLC
HCC-2998 colon = tested on: HCC-2998 colon
HCT-116 colon = tested on: HCT-116 colon
HCT-15 colon = tested on: HCT-15 colon
HL-60(TB) leukemia = tested on: HL-60(TB) leukemia
HOP-62 NSCLC = tested on: HOP-62 NSCLC
HOP-92 NSCLC = tested on: HOP-92 NSCLC
HS 578T breast = tested on: HS 578T breast
HT29 colon = tested on: HT29 colon
IGROV1 ovarian = tested on: IGROV1 ovarian
K-562 leukemia = tested on: K-562 leukemia
KM12 colon = tested on: KM12 colon
LOX IMVI melanoma = tested on: LOX IMVI melanoma
M14 melanoma = tested on: M14 melanoma
MALME-3M melanoma = tested on: MALME-3M melanoma
MCF7 breast = tested on: MCF7 breast
MDA-MB-231 breast = tested on: MDA-MB-231 breast
MDA-MB-435 = tested on: MDA-MB-435
MOLT-4 leukemia = tested on: MOLT-4 leukemia
NCI-H226 lung = tested on: NCI-H226 lung
NCI-H23 lung = tested on: NCI-H23 lung
NCI-H460 lung = tested on: NCI-H460 lung
NCI-H522 lung = tested on: NCI-H522 lung
NCI/ADR-RES ovarian = tested on: NCI/ADR-RES ovarian
OVCAR-3 ovarian = tested on: OVCAR-3 ovarian
OVCAR-4 ovarian = tested on: OVCAR-4 ovarian
OVCAR-5 ovarian = tested on: OVCAR-5 ovarian
OVCAR-8 ovarian = tested on: OVCAR-8 ovarian
PC-3 prostate = tested on: PC-3 prostate
RPMI-8226 leukemia = tested on: RPMI-8226 leukemia
RXF 393 renal = tested on: RXF 393 renal
SF-268 CNS = tested on: SF-268 CNS
SF-295 CNS = tested on: SF-295 CNS
SF-539 CNS = tested on: SF-539 CNS
SK-MEL-2 melanoma = tested on: SK-MEL-2 melanoma
SK-MEL-28 melanoma = tested on: SK-MEL-28 melanoma
SK-MEL-5 melanoma = tested on: SK-MEL-5 melanoma
SK-OV-3 ovarian = tested on: SK-OV-3 ovarian
SN12C renal = tested on: SN12C renal
SNB-19 CNS = tested on: SNB-19 CNS
SNB-75 CNS = tested on: SNB-75 CNS
SR leukemia = tested on: SR leukemia
SW-620 colon = tested on: SW-620 colon
T-47D breast = tested on: T-47D breast
TK-10 renal = tested on: TK-10 renal
U251 CNS = tested on: U251 CNS
UACC-257 melanoma = tested on: UACC-257 melanoma
UACC-62 melanoma = tested on: UACC-62 melanoma
UO-31 renal = tested on: UO-31 renal

O=C(Nc1ccccc1)Nc1cccc(Oc2nnc(Cl)c3ccccc23)c1
GI50 (786-0 renal): 3.6 µM
TGI (786-0 renal): 8.18 µM
GI50 (A498 renal): 3.45 µM
TGI (A498 renal): 13.1 µM
GI50 (A549 NSCLC): 3.47 µM
TGI (A549 NSCLC): 18.4 µM
GI50 (ACHN renal): 3.47 µM
TGI (ACHN renal): 18.7 µM
GI50 (BT-549 breast): 3.06 µM
TGI (BT-549 breast): 10.8 µM
GI50 (CAKI-1 renal): 3.34 µM
TGI (CAKI-1 renal): 14.3 µM
GI50 (CCRF-CEM leukemia): 4.44 µM
TGI (CCRF-CEM leukemia): > 25 µM
GI50 (COLO 205 colon): 5.24 µM
TGI (COLO 205 colon): > 25 µM
GI50 (DU-145 prostate): 3.01 µM
TGI (DU-145 prostate): 10.5 µM
GI50 (EKVX NSCLC): 2.31 µM
TGI (EKVX NSCLC): 12.1 µM
GI50 (HCC-2998 colon): 4.2 µM
TGI (HCC-2998 colon): 12.2 µM
GI50 (HCT-116 colon): 3.06 µM
TGI (HCT-116 colon): 9.77 µM
GI50 (HCT-15 colon): 3.54 µM
TGI (HCT-15 colon): 12.9 µM
GI50 (HL-60(TB) leukemia): 2.7 µM
TGI (HL-60(TB) leukemia): > 25 µM
GI50 (HOP-62 NSCLC): 2.52 µM
TGI (HOP-62 NSCLC): 6.54 µM
GI50 (HOP-92 NSCLC): 3.09 µM
TGI (HOP-92 NSCLC): 11.3 µM
GI50 (HS 578T breast): 2.12 µM
TGI (HS 578T breast): 10.4 µM
GI50 (HT29 colon): 5.26 µM
TGI (HT29 colon): > 25 µM
GI50 (IGROV1 ovarian): 3.32 µM
TGI (IGROV1 ovarian): 7.92 µM
GI50 (K-562 leukemia): 6.21 µM
TGI (K-562 leukemia): > 25 µM
GI50 (KM12 colon): 5.51 µM
TGI (KM12 colon): > 25 µM
GI50 (LOX IMVI melanoma): 3.46 µM
TGI (LOX IMVI melanoma): 6.8 µM
GI50 (M14 melanoma): 6.15 µM
TGI (M14 melanoma): > 25 µM
GI50 (MALME-3M melanoma): 1.62 µM
TGI (MALME-3M melanoma): 5.93 µM
GI50 (MCF7 breast): 1.32 µM
TGI (MCF7 breast): 6.32 µM
GI50 (MDA-MB-231 breast): 4.76 µM
TGI (MDA-MB-231 breast): 12.3 µM
GI50 (MDA-MB-435): 7.54 µM
TGI (MDA-MB-435): > 25 µM
GI50 (MOLT-4 leukemia): 2.6 µM
TGI (MOLT-4 leukemia): 11.4 µM
GI50 (NCI-H226 lung): 1.95 µM
TGI (NCI-H226 lung): 9.25 µM
GI50 (NCI-H23 lung): 3.72 µM
TGI (NCI-H23 lung): 9.44 µM
GI50 (NCI-H460 lung): 2.67 µM
TGI (NCI-H460 lung): 8.65 µM
GI50 (NCI-H522 lung): 2.8 µM
TGI (NCI-H522 lung): 9.68 µM
GI50 (NCI/ADR-RES ovarian): 2.63 µM
TGI (NCI/ADR-RES ovarian): 6.39 µM
GI50 (OVCAR-3 ovarian): 2.64 µM
TGI (OVCAR-3 ovarian): 5.97 µM
GI50 (OVCAR-4 ovarian): 1.74 µM
TGI (OVCAR-4 ovarian): 12.2 µM
GI50 (OVCAR-5 ovarian): 5.61 µM
TGI (OVCAR-5 ovarian): 15.3 µM
GI50 (OVCAR-8 ovarian): 2.6 µM
TGI (OVCAR-8 ovarian): 6.53 µM
GI50 (PC-3 prostate): 3.26 µM
TGI (PC-3 prostate): 10.6 µM
GI50 (RPMI-8226 leukemia): 4.45 µM
TGI (RPMI-8226 leukemia): 24.3 µM
GI50 (RXF 393 renal): 2.69 µM
TGI (RXF 393 renal): 6.24 µM
GI50 (SF-268 CNS): 2.89 µM
TGI (SF-268 CNS): 7.57 µM
GI50 (SF-295 CNS): 2.07 µM
TGI (SF-295 CNS): 5.63 µM
GI50 (SF-539 CNS): 2.81 µM
TGI (SF-539 CNS): 6.4 µM
GI50 (SK-MEL-2 melanoma): 3.9 µM
TGI (SK-MEL-2 melanoma): 13.2 µM
GI50 (SK-MEL-28 melanoma): 3.57 µM
TGI (SK-MEL-28 melanoma): 12.7 µM
GI50 (SK-MEL-5 melanoma): 4.56 µM
TGI (SK-MEL-5 melanoma): 18.6 µM
GI50 (SK-OV-3 ovarian): 1.46 µM
TGI (SK-OV-3 ovarian): 5.51 µM
GI50 (SN12C renal): 6.72 µM
TGI (SN12C renal): > 25 µM
GI50 (SNB-19 CNS): 1.67 µM
TGI (SNB-19 CNS): 8.46 µM
GI50 (SNB-75 CNS): 1.08 µM
TGI (SNB-75 CNS): 5.9 µM
GI50 (SR leukemia): 1.93 µM
TGI (SR leukemia): 8.26 µM
GI50 (SW-620 colon): 8.41 µM
TGI (SW-620 colon): > 25 µM
GI50 (T-47D breast): 0.863 µM
TGI (T-47D breast): 10.8 µM
GI50 (TK-10 renal): 6.08 µM
TGI (TK-10 renal): 14.9 µM
GI50 (U251 CNS): 2.14 µM
TGI (U251 CNS): 5.2 µM
GI50 (UACC-257 melanoma): 3.96 µM
TGI (UACC-257 melanoma): > 25 µM
GI50 (UACC-62 melanoma): 6.84 µM
TGI (UACC-62 melanoma): > 25 µM
GI50 (UO-31 renal): 3.98 µM
TGI (UO-31 renal): 19.6 µM
